Like-named read-outs stand apart in the source and are kept apart here.
Legend:
[1] = biological target: T1, human Kv4.3/KChIP2.2 potassium channel (Homo sapiens, UniProt Q9UK17); assay: Whole cell patch clamp, CHO-K1 cells stably expressing Kv4.3/KChIP2.2; format: cell-based; settings: CHO-K1, 1 μM
T1 construct: expressed in transfected cells
T1 sequence (Q9UK17 1-655): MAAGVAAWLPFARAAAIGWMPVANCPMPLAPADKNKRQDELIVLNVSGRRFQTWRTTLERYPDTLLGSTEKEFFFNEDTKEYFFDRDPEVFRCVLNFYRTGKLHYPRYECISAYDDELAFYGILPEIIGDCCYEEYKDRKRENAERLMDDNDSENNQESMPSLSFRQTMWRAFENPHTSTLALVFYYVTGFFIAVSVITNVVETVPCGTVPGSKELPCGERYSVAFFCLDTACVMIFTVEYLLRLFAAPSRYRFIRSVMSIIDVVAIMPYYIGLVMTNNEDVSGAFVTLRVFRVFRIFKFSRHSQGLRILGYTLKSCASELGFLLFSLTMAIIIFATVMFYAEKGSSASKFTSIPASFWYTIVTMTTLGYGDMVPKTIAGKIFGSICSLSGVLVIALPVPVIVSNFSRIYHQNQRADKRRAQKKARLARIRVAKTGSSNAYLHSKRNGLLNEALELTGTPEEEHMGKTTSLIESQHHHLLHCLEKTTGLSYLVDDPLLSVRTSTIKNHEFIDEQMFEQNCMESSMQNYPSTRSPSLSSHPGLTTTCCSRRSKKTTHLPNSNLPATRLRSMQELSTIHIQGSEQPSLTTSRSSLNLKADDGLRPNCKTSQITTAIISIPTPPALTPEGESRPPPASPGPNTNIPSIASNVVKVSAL
T1 sequence (Q9NS61 1-270 partner): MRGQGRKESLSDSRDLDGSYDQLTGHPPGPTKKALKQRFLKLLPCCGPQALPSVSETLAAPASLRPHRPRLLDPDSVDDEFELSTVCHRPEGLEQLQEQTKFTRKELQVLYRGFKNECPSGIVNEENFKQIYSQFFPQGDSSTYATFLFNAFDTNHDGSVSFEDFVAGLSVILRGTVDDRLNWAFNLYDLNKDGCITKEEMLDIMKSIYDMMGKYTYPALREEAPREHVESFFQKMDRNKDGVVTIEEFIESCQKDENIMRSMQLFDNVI
Procedure: For this experiment, a recombinant CHO-K1 cell line stably expressing the human Kv4.3/KChIP2.2 potassium channel was used.
Protocol B: The cells were cultured in 94 mm culture dishes under the culturing conditions of 5% CO2 and 37° C. Subculturing was performed every 3-4 days, by removing the media and then rising the dish with 8 ml PBS (phosphate buffered saline). The PBS was removed and 1 ml Trypsin/EDTA was added to the cells. The cells were incubated about 2 min at 37° C. or 5 min at room temperature and then the dish was rapped to detach and singularize the cells. To inactivate the enzyme 9 ml of media was added and the solution was pipetted up and down to break up clumps of cells. Part of the suspension was then transferred to a new 94 mm dish and media was added to a final volume of 8 ml. If necessary the cells could be seeded onto 35 mm or 94 mm dishes (2 ml media per 35 mm dish and 8 ml media per 94 mm dish). The media was changed every 2-3 days. The media used was the solution for culturing the cells described above. For stable cells antibiotic G418, Hygromycin, Blasticidin, or Zeocin were not added.
The preparation of cells for electrophysiological experiments was performed as described in protocol C hereunder.
Protocol C: The transfected cells and stable cells were transferred from 35 mm cell culture dishes onto coverslips using cold PBS: The media was removed and 0.3 ml of PBS (4-10° C.) was added. The cells were incubated 5 min at room temperature. The dish was rapped to detach and singularize the cells and 1.7 ml media was added and the solution pipetted up and down to break up clumps of cells. Part of the cell suspension was then transferred to a 35 mm dish with coverslips and media. The transfected cells and stable cells could also be transferred from 35 mm cell culture dishes onto coverslips using trypsin: The media was removed and the dish rinsed with 3 ml PBS. The PBS was removed and 0.3 ml 1× Trypsin/EDTA was added and the cells incubated 5 min at room temperature. The dish was rapped to detach and singularize the cells and 1.7 ml media was added and the solution pipetted up and down to break up clumps of cells. Part of the cell suspension was then transferred to a 35 mm dish with coverslips and media.
10 mM stock solutions of the compounds were prepared in DMSO. Solutions of the compounds were prepared by dilution of stock solution in bath solution. If the required stock solution volume was theoretically below 1 μl, bath solutions with higher compound concentration were used for dilution. The maximal DMSO concentration during experiments was 0.1% (v/v).
For patch clamp experiments, the following solutions in demineralized water as vehicle were used (concentration in mM).
Bath (external) solution: 4 KCl, 135 NaCl, 2 CaCl2, 1 MgCl2, 10 D(+)-Glucose, 5 HEPES, pH 7.4 (NaOH).
Pipette (internal) solution: 130 KCl, 1 MgCl2, 10 EGTA, 5 Na2ATP, 5 HEPES, pH 7.4 (KOH).
Experiments were performed using a patch clamp set-up.
Measurements were performed at room temperature (20-25° C.). […] Each cell acted as its own control. The effect of compounds on Kv4.3/KChIP2.2 mediated currents was investigated at one concentration ([…]) with two replicates each (c=1, n=2).
The test protocols are illustrated in FIG. 1 and Table 4. […] Each test protocol consisted of 4 segments.
Subsequently, 14 test pulses (series 1; FIG. 1b and Table 4b) were applied at 0.1 Hz under constant superfusion with bath solution. The protocol was initiated by a voltage jump to −100 mV (400 ms) to achieve full inactivation. Then the Kv4.3/KChIP2.2 channels were transferred to the open state by depolarization to +40 mV for 300 milliseconds (activation). Only cells generating current amplitudes between 1 nA and 50 nA were used for the experimental procedure. No or negligible rundown was observed.
Then, 36 test pulses (series 2) were applied at 0.1 Hz under constant superfusion with the compound dissolved in bath solution. […]

[2] = read-out: Kv4.3 charge in %: remaining current measured after application of the compound and relative to the blank
[3] = read-out: Kv4.3 peak in %: remaining peak height measured after application of the compound and relative to the blank

| remaining activity at 1 µM [1, 2] | remaining activity at 1 µM [1, 3] | melting point | Structure (SMILES) |
| --- | --- | --- | --- |
| 81% | 99% | 187.1 to 188.5 °C | O=C(c1cc2cc(Cl)ccc2o1)N1Cc2ccccc2C1 [Compound 26, (5-chloro-benzofuran-2-yl)-(1,3-dihydro-isoindol-2-yl)-methanone] |
| 59% | 86% | 127.7 to 129.1 °C | O=C(c1cc2cc(Cl)ccc2o1)N1CCc2ccccc2C1 [Compound 27, (5-chloro-benzofuran-2-yl)-(3,4-dihydro-1H-isoquinolin-2-yl)-methanone] |
|  |  | 161.4 to 164.1 °C | O=C(NC1CCc2ccccc21)c1cc2cc(Cl)ccc2o1 (centres unmarked) [Compound 94, 5-chloro-benzofuran-2-carboxylic acid indan-1-ylamide] |
|  |  | 146.1 to 147.4 °C | COc1ccccc1C1CCN(C(=O)c2cc3cc(Cl)ccc3o2)CC1 [Compound 95, (5-chloro-benzofuran-2-yl)-[4-(2-methoxy-phenyl)-piperidin-1-yl]-methanone] |
|  |  | 114.6 to 116.2 °C | O=C(c1cc2cc(Cl)ccc2o1)N1CCC(Cc2ccccc2)CC1 [Compound 101, (4-benzyl-piperidin-1-yl)-(5-chloro-benzofuran-2-yl)-methanone] |
|  |  | 135 to 137.1 °C | O=C(c1ccc(F)cc1)C1CCN(C(=O)c2cc3cc(Cl)ccc3o2)CC1 [Compound 102] |
|  |  | 123.3 to 125.4 °C | O=C(c1cc2cc(Cl)ccc2o1)N1CCCC1c1ccccc1 (centres unmarked) [Compound 103, (5-chloro-benzofuran-2-yl)-(2-phenyl-pyrrolidin-1-yl)-methanone] |
|  |  | 104.4 to 106.1 °C | O=C(c1cc2cc(Cl)ccc2o1)N1CCCC1c1ccc(F)cc1 (centres unmarked) [Compound 104, (5-chloro-benzofuran-2-yl)-[2-(4-fluoro-phenyl)-pyrrolidin-1-yl]-methanone] |

Continued, compound first:

| Structure (SMILES) | remaining activity at 1 µM [1, 2] | remaining activity at 1 µM [1, 3] | melting point |
| --- | --- | --- | --- |
| COc1ccc(CNC(=O)c2cc3c(C(C)=O)ccc(OC)c3o2)c(OC)c1 [Compound 13, 4-acetyl-7-methoxy-benzofuran-2-carboxylic acid 2,4-dimethoxy-benzylamide] | 86% | 99% | 148.2 to 150.3 °C |
| COc1ccc(CC(=O)Nc2cc3ccccc3o2)c(OC)c1 [Compound 22, N-benzofuran-2-yl-2-(2,4-dimethoxy-phenyl)-acetamide] | 90% | 100% | 126.4 to 128.2 °C |
| COc1ccc(NC(=O)c2cc3cc(Cl)ccc3o2)c(OC)c1 [Compound 24, 5-chloro-benzofuran-2-carboxylic acid (2,4-dimethoxy-phenyl)-amide] | 85% | 102% | 161.6 to 163.3 °C |
| O=C(NC1Cc2ccccc2C1)c1cc2cc(Cl)ccc2o1 [Compound 25, 5-chloro-benzofuran-2-carboxylic acid indan-2-ylamide] | 82% | 100% | 190.2 to 190.5 °C |
| COC(=O)[C@H](NC(=O)c1cc2cc(Cl)ccc2o1)c1ccccc1 [Compound 84, (R)-[(5-chloro-benzofuran-2-carbonyl)-amino]-phenyl-acetic acid methyl ester] |  |  | 147.9 °C |
| COC(=O)[C@@H](NC(=O)c1cc2cc(Cl)ccc2o1)c1ccccc1 [Compound 85, (S)[(5-chloro-benzofuran-2-carbonyl)-amino]-phenyl-acetic acid methyl ester] |  |  | 76.5 to 79.1 °C |
| O=C(NCc1ccccc1OC(F)(F)F)c1cc2cc(Cl)ccc2o1 [Compound 87, 5-chloro-benzofuran-2-carboxylic acid 2-trifluoromethoxy-benzylamide] |  |  | 125.8 to 127.9 °C |
| O=C(NCc1cccc(OC(F)(F)F)c1)c1cc2cc(Cl)ccc2o1 [Compound 88, 5-chloro-benzofuran-2-carboxylic acid 3-trifluoromethoxy-benzylamide] |  |  | 133.5 to 137.9 °C |
| Cc1ccc(C)c(CNC(=O)c2cc3cc(Cl)ccc3o2)c1 [Compound 90, 5-chloro-benzofuran-2-carboxylic acid 2,5-dimethyl-benzylamide] |  |  | 123.1 to 124 °C |
| O=C(NCc1ccc(-c2cnns2)cc1)c1cc2cc(Cl)ccc2o1 [Compound 91, 5-chloro-benzofuran-2-carboxylic acid 4-[1,2,3]thiadiazol-5-yl-benzylamide] |  |  | 178.1 to 181.8 °C |
| O=C(Nc1ccc(N2CCOCC2)cc1)c1cc2cc(Cl)ccc2o1 [Compound 99] |  |  | 223.8 to 225.6 °C |
| Cc1cccc(Cl)c1CNC(=O)c1sc2ccc(Cl)cc2c1C [Compound 110, 5-chloro-3-methyl-benzo[b]thiophene-2-carboxylic acid 2-chloro-6-methyl-benzylamide] |  |  | 180.5 to 182 °C |
| COc1ccc(CNC(=O)c2cc3cc(Cl)ccc3[nH]2)c(OC)c1 [Compound 111, 5-chloro-1H-indole-2-carboxylic acid 2,4-dimethoxy-benzylamide] |  |  | 205.7 to 209.3 °C |
| COc1ccc(CNC(=O)c2ccc3ccccc3n2)c(OC)c1 [Compound 112, quinolin-2-carboxylic acid 2,4-dimethoxy-benzylamide] |  |  | 93.9 to 95.4 °C |
| O=C(NCC1COc2ccccc2O1)c1cc2cc(Cl)ccc2o1 (centres unmarked) [Compound 113, 5-chloro-benzofuran-2-carboxylic acid (2,3-dihydro-benzo[1,4]dioxin-2-ylmethyl)-amide] |  |  | 121.1 to 124.3 °C |
| COc1ccc(CNC(=O)c2oc3ccc(Cl)cc3c2NC(C)=O)c(OC)c1 [Compound 115, 3-acetylamino-5-chloro-benzofuran-2-carboxylic acid 2,4-dimethoxy-benzylamide] |  |  | 165.5 to 170.3 °C |
| Cc1c(C(=O)NCc2ccc(OC(F)(F)F)cc2)sc2ccc(Cl)cc12 [Compound 117] |  |  | 159.2 to 162.4 °C |
| Cc1cc(Cl)cc(Cl)c1CNC(=O)c1cc2cc(Cl)ccc2o1 [Compound 119, 5-chloro-benzofuran-2-carboxylic acid 2,4-dichloro-6-methyl-benzylamide] |  |  | 210 to 212 °C |
